# Experimental data taken from PubChem BioAssay AID328 (DTP/NCI, 2004).
# Toxic doses and inconclusive results are not listed.
# Test system: BDF1 mice, P388 leukemia ip, median survival T/C
# Test: NCI In Vivo Anticancer Drug Screen. Data for tumor model P388 Leukemia (intraperitoneal) in B6D2F1 (BDF1) mice
# Details: endpoint: median survival time, higher = longer survival
# Summary of the method: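 Survival ratio, drug arm over vehicle arm, in mice with a transplanted tumour.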
# [1] = dose: 50.0 mg/kg/injection, schedule: Q01DX009 (ip), vehicle: saline with Tween-80
# [2] = dose: 100.0 mg/kg/injection, schedule: Q01DX009 (ip), vehicle: saline with Tween-80
# [3] = dose: 200.0 mg/kg/injection, schedule: Q01DX009 (ip), vehicle: saline with Tween-80
# [4] = dose: 12.5 mg/kg/injection, schedule: Q04DX003 (ip), vehicle: saline with Tween-80
# [5] = dose: 25.0 mg/kg/injection, schedule: Q04DX003 (ip), vehicle: saline with Tween-80
# [6] = dose: 100.0 mg/kg/injection, schedule: Q04DX003 (ip), vehicle: saline with Tween-80
# [7] = dose: 12.5 mg/kg/injection, schedule: Q01DX009 (ip), vehicle: saline with Tween-80
# [8] = dose: 25.0 mg/kg/injection, schedule: Q01DX009 (ip), vehicle: saline with Tween-80
# [9] = dose: 50.0 mg/kg/injection, schedule: Q04DX003 (ip), vehicle: saline with Tween-80
compound,measurement,setting,value
COC(=O)C1=C(C(=O)OC)C(C(=O)OC)N2C=C(C)C=CC2=C1C(=O)OC (stereo unspecified),T/C,[1],102 % of control
same,T/C,[2],100 % of control
same,T/C,[3],98 % of control
O=c1cc(CBr)c2ccccc2[nH]1,T/C,"dose: 6.25 mg/kg/injection, schedule: Q04DX003 (ip), vehicle: saline with Tween-80",91 % of control
same,T/C,[4],104 % of control
same,T/C,[5],104 % of control
COC(=O)CCCNC(=O)/C=C1/c2cc(OC)c(OC)cc2CCC1S(=O)(=O)OC (stereo unspecified),T/C,"dose: 100.0 mg/kg/injection, schedule: Q01DX009 (ip), vehicle: saline",104 % of control
same,T/C,"dose: 200.0 mg/kg/injection, schedule: Q01DX009 (ip), vehicle: saline",90 % of control
same,T/C,"dose: 400.0 mg/kg/injection, schedule: Q01DX009 (ip), vehicle: saline",100 % of control
Cc1c2c(ccc3ccccc32)c[n+]2ccccc12,T/C,"dose: 6.25 mg/kg/injection, schedule: Q01DX009 (ip), vehicle: saline",105 % of control
same,T/C,"dose: 12.5 mg/kg/injection, schedule: Q01DX009 (ip), vehicle: saline",122 % of control
same,T/C,"dose: 12.5 mg/kg/injection, schedule: Q04DX003 (ip), vehicle: saline",118 % of control
same,T/C,"dose: 25.0 mg/kg/injection, schedule: Q04DX003 (ip), vehicle: saline",122 % of control
CN(C)c1ccc(/C=C/c2ccc3ccccc3[n+]2[O-])cc1,T/C,[1],99 % of control
same,T/C,[2],97 % of control
same,T/C,[3],117 % of control
O=C(NC(=O)c1c(F)cccc1F)Nc1ncc(Cl)cc1Cl,T/C,[1],90 % of control
same,T/C,[2],100 % of control
same,T/C,[3],90 % of control
NC(=O)c1ccc(C(N)=O)cc1,T/C,[6],100 % of control
same,T/C,"dose: 200.0 mg/kg/injection, schedule: Q04DX003 (ip), vehicle: saline with Tween-80",104 % of control
same,T/C,"dose: 400.0 mg/kg/injection, schedule: Q04DX003 (ip), vehicle: saline with Tween-80",100 % of control
Clc1cc(N2CC2)nc(N2CC2)n1,T/C,"dose: 0.11 mg/kg/injection, schedule: Q01DX009 (ip), vehicle: saline",90 % of control
same,T/C,"dose: 0.17 mg/kg/injection, schedule: Q01DX009 (ip), vehicle: saline",95 % of control
same,T/C,"dose: 0.27 mg/kg/injection, schedule: Q01DX009 (ip), vehicle: saline",275 % of control
same,T/C,"dose: 0.4 mg/kg/injection, schedule: Q01DX009 (ip), vehicle: saline",295 % of control
same,T/C,"dose: 0.62 mg/kg/injection, schedule: Q01DX009 (ip), vehicle: saline",157 % of control
same,T/C,"dose: 1.25 mg/kg/injection, schedule: Q01DX009 (ip), vehicle: saline",230 % of control
same,T/C,"dose: 1.56 mg/kg/injection, schedule: Q01DX001 (ip), vehicle: saline",109 % of control
same,T/C,"dose: 3.12 mg/kg/injection, schedule: Q04DX003 (ip), vehicle: saline",104 % of control
same,T/C,"dose: 6.5 mg/kg/injection, schedule: Q01DX001 (ip), vehicle: saline",163 % of control
same,T/C,"dose: 6.5 mg/kg/injection, schedule: Q04DX003 (ip), vehicle: saline",168 % of control
O=C(CN1CC1)NCCCCCCCCNC(=O)CN1CC1,T/C,[7],200 % of control
same,T/C,[8],259 % of control
same,T/C,"dose: 33.0 mg/kg/injection, schedule: Q04DX003 (ip), vehicle: saline with Tween-80",190 % of control
same,T/C,[1],86 % of control
same,T/C,[9],209 % of control
same,T/C,"dose: 75.0 mg/kg/injection, schedule: Q04DX003 (ip), vehicle: saline with Tween-80",245 % of control
CC1(C)CN(Cc2ccccc2)C(C)(C)CN1N,T/C,"dose: 6.25 mg/kg/injection, schedule: Q01DX009 (ip), vehicle: saline with Tween-80",97 % of control
same,T/C,[7],101 % of control
same,T/C,[4],111 % of control
same,T/C,[8],97 % of control
same,T/C,[5],107 % of control
same,T/C,[1],115 % of control
same,T/C,[9],107 % of control
same,T/C,[6],111 % of control
CS(=O)CC(O)(c1ccccc1)c1cccnc1 (stereo unspecified),T/C,[1],103 % of control
same,T/C,[2],92 % of control
same,T/C,[3],107 % of control
c1nc(SC2CCCC2)c2[nH]cnc2n1,T/C,[2],100 % of control
same,T/C,[3],116 % of control
